Results published in ChEMBL document CHEMBL1201862, “PubChem BioAssay data set” (2004).
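Grown in 96-well plates, cells were treated for 48 hours with each compound at five concentrations. Insufficient inhibition: endpoint recorded as highest concentration tested. GI50: concentration for 50% inhibition of growth.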 Active and inactive are the calls of the source. No stated cut-off is given here; in the data, active = GI50 up to about 1.1 µM and inactive = higher.

How the values were obtained:
Assay in all cases: growth of human tumour cells (NCI), 48 h
Malme-3M = test system: Malme-3M
HCT-116 = test system: HCT-116
HT-29 = test system: HT-29
HOP-92 = test system: HOP-92
ACHN = test system: ACHN
SK-MEL-28 = test system: SK-MEL-28
MDA-MB-231 = test system: MDA-MB-231
DU-145 = test system: DU-145
HOP-62 = test system: HOP-62
CAKI-1 = test system: CAKI-1
NCI-H226 = test system: NCI-H226
NCI-H522 = test system: NCI-H522
OVCAR-8 = test system: OVCAR-8
SK-OV-3 = test system: SK-OV-3
KM12 = test system: KM12
OVCAR-4 = test system: OVCAR-4
LOX IMVI = test system: LOX IMVI
MOLT-4 = test system: MOLT-4
HCC 2998 = test system: HCC 2998

Measured: GI50

CCCCN1/C(=N/Nc2n[nH]c(=O)c3ccccc23)SCC1c1ccc(Cl)cc1 (stereo not given)
inactive: Malme-3M 22 µM | HCT-116 13.9 µM | HT-29 24.2 µM | HOP-92 57.9 µM | ACHN 25.3 µM | SK-MEL-28 19.1 µM | MDA-MB-231 20.6 µM | DU-145 22.2 µM | HOP-62 6.24 µM | CAKI-1 20.3 µM | NCI-H226 10.4 µM | NCI-H522 11.8 µM | OVCAR-8 15.4 µM | SK-OV-3 21.8 µM | KM12 5.01 µM | OVCAR-4 53.3 µM

COC(=O)c1cc(C)n(CN(Cn2nc(C(=O)OC)cc2C)c2ccccc2)n1
inactive: Malme-3M 43.2 µM | HCT-116 19.6 µM | HT-29 16.7 µM | HOP-92 66.1 µM | ACHN 18.7 µM | SK-MEL-28 32.8 µM | MDA-MB-231 > 100 µM | DU-145 25.9 µM | HOP-62 97.3 µM | CAKI-1 37.8 µM | NCI-H522 39 µM | LOX IMVI 7 µM | MOLT-4 13.4 µM | OVCAR-8 19.4 µM | SK-OV-3 > 100 µM | KM12 29.4 µM | OVCAR-4 18.4 µM

COc1cc(OC)cc(-n2c(N)c(-c3nc4ccccc4n3C)c3ccc([N+](=O)[O-])cc3c2=O)c1
inactive: HCT-116 > 100 µM | HT-29 > 100 µM | HOP-92 18.6 µM | ACHN 83.4 µM | SK-MEL-28 > 100 µM | HCC 2998 > 100 µM | MDA-MB-231 80.5 µM | DU-145 > 100 µM | CAKI-1 > 100 µM | NCI-H226 70.6 µM | NCI-H522 55.8 µM | LOX IMVI > 100 µM | OVCAR-8 32 µM | KM12 35.6 µM | OVCAR-4 28.2 µM

Cc1ccc(S(=O)(=O)N2CCCN(S(=O)(=O)c3ccc(C)cc3)CCN(S(=O)(=O)c3ccc(C)cc3)CCCSCC2)cc1
inactive: HCT-116 > 100 µM | HT-29 > 100 µM | HOP-92 > 100 µM | ACHN > 100 µM | SK-MEL-28 > 100 µM | HCC 2998 > 100 µM | MDA-MB-231 59.3 µM | DU-145 > 100 µM | HOP-62 54.5 µM | NCI-H226 > 100 µM | MOLT-4 > 100 µM | OVCAR-8 > 100 µM | SK-OV-3 > 100 µM | OVCAR-4 > 100 µM

CCN(CC)c1ccc(/C=C/C=C2C(=O)NC(=S)NC2=O)cc1
inactive: Malme-3M 16.6 µM | HCT-116 30.9 µM | HT-29 > 100 µM | HOP-92 77.8 µM | ACHN > 100 µM | SK-MEL-28 4.91 µM | HCC 2998 27.2 µM | MDA-MB-231 22.9 µM | DU-145 20.9 µM | HOP-62 15.4 µM | CAKI-1 > 100 µM | NCI-H226 28.6 µM | LOX IMVI 13.5 µM | MOLT-4 4.27 µM | OVCAR-8 14.3 µM | SK-OV-3 > 100 µM | KM12 38 µM | OVCAR-4 > 100 µM

O=C(CC(c1ccccc1)C(C(=O)c1ccncc1)C(CC(=O)c1ccncc1)c1ccccc1)c1ccncc1 (stereo not given)
inactive: Malme-3M > 100 µM | HCT-116 > 100 µM | HT-29 > 100 µM | HOP-92 48.3 µM | ACHN 70 µM | SK-MEL-28 > 100 µM | HCC 2998 > 100 µM | MDA-MB-231 31.6 µM | DU-145 96.6 µM | HOP-62 44.5 µM | CAKI-1 > 100 µM | NCI-H226 38.5 µM | LOX IMVI > 100 µM | MOLT-4 > 100 µM | OVCAR-8 35.6 µM | SK-OV-3 29.2 µM | KM12 > 100 µM | OVCAR-4 > 10 µM

Nc1nc2cc(CNc3ccc(C(=O)O)cc3)ccc2nc1-c1ccccc1
inactive: Malme-3M > 100 µM | HCT-116 69.8 µM | HT-29 > 100 µM | ACHN > 100 µM | SK-MEL-28 > 100 µM | HCC 2998 > 100 µM | MDA-MB-231 > 100 µM | DU-145 44.6 µM | HOP-62 > 100 µM | NCI-H226 > 100 µM | NCI-H522 > 100 µM | LOX IMVI 54.2 µM | MOLT-4 69.8 µM | OVCAR-8 > 100 µM | SK-OV-3 > 100 µM | OVCAR-4 > 100 µM

Cc1ccccc1NC(=O)Cc1csc2[n+]1C(=O)/C(=C/c1ccc([N+](=O)[O-])cc1)S2
inactive: HCT-116 37.6 µM | HT-29 36 µM | HOP-92 19.5 µM | ACHN 24.2 µM | SK-MEL-28 37.7 µM | HCC 2998 28.1 µM | MDA-MB-231 37.5 µM | DU-145 53.8 µM | HOP-62 33.5 µM | CAKI-1 25.5 µM | NCI-H226 31.2 µM | LOX IMVI 38.5 µM | MOLT-4 25.5 µM | OVCAR-8 24.8 µM | SK-OV-3 > 100 µM | KM12 23.7 µM | OVCAR-4 12.1 µM

COC(=O)c1c(OC(C)=O)ccc2c1c1c(n2Cc2ccccc2)C(=O)c2ccccc2C1=O
inactive: Malme-3M 30 µM | HCT-116 15.7 µM | HT-29 16.9 µM | HOP-92 21.4 µM | ACHN 30.1 µM | SK-MEL-28 21.4 µM | HCC 2998 16.2 µM | MDA-MB-231 17.1 µM | DU-145 17 µM | HOP-62 24.1 µM | CAKI-1 22 µM | NCI-H226 23 µM | NCI-H522 19.5 µM | MOLT-4 16.8 µM | OVCAR-8 27.7 µM | SK-OV-3 23.6 µM | KM12 20.5 µM | OVCAR-4 21.8 µM

Cc1c(NC(=O)CSC(=S)N(C)C)c(=O)n(-c2ccccc2)n1C
inactive: Malme-3M > 100 µM | HCT-116 > 100 µM | HT-29 > 100 µM | ACHN > 100 µM | SK-MEL-28 > 100 µM | HCC 2998 > 100 µM | MDA-MB-231 > 100 µM | DU-145 > 100 µM | HOP-62 > 100 µM | CAKI-1 > 100 µM | NCI-H226 > 100 µM | NCI-H522 > 100 µM | LOX IMVI > 100 µM | MOLT-4 > 100 µM | OVCAR-8 > 100 µM | SK-OV-3 > 100 µM | KM12 > 100 µM | OVCAR-4 > 100 µM

Cc1c(O)nc(-n2[nH]c3c(c2=O)CCCC3)[nH]c1=O
inactive: Malme-3M > 100 µM | HCT-116 > 100 µM | HT-29 > 100 µM | HOP-92 > 100 µM | ACHN > 100 µM | SK-MEL-28 > 100 µM | MDA-MB-231 > 100 µM | DU-145 > 100 µM | CAKI-1 > 100 µM | NCI-H226 > 100 µM | NCI-H522 > 100 µM | MOLT-4 > 100 µM | OVCAR-8 > 100 µM | SK-OV-3 > 100 µM | KM12 > 100 µM | OVCAR-4 > 100 µM

CSC(SC)(C(=O)O)c1cc(-c2c(Cl)cccc2Cl)no1
inactive: Malme-3M 60.8 µM | HCT-116 26.9 µM | HT-29 32.9 µM | HOP-92 98.9 µM | ACHN 46.9 µM | SK-MEL-28 > 100 µM | MDA-MB-231 31.4 µM | DU-145 > 100 µM | HOP-62 87.5 µM | CAKI-1 48.4 µM | NCI-H226 25.1 µM | NCI-H522 28.5 µM | LOX IMVI 35.6 µM | MOLT-4 24.5 µM | OVCAR-8 > 100 µM | SK-OV-3 > 100 µM | OVCAR-4 37.9 µM
